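Following 48 hours of exposure in 96-well plates, responses at five concentrations were used to interpolate endpoints linearly. TGI: concentration producing complete growth inhibition.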
Assays:
Experiment in all cases: NCI-60 cell line screen, 48 h
[1] = system: KM20L2 colon
[2] = system: M19-MEL melanoma
[3] = system: DLD-1 colon
[4] = system: DMS 273 small cell lung
[5] = system: DMS 114 small cell lung

| Structure (SMILES) | TGI [1] [µM] | TGI [2] [µM] | TGI [3] [µM] | TGI [4] [µM] | TGI [5] [µM] |
| --- | --- | --- | --- | --- | --- |
| CCC(COC(=O)CC[C@@H](NC(=O)C(C)NC(=O)C(C)OC1C(O)C(CO)OC(OCc2ccccc2)C1NC(C)=O)C(N)=O)NC1c2ccccc2Nc2cccc([N+](=O)[O-])c21 (some centres not stated) | > 100 | > 100 | > 100 | > 100 | > 100 |
| C#CCNC(=O)NCCCCC(NC(=O)OCc1ccccc1)C(=O)OCc1ccccc1 (configuration not stated) | > 100 | > 100 | > 100 | > 100 | > 73.5 |
| CCCc1c(C(=O)OCC)[nH]c(-c2ccc(-c3[nH]c(C(=O)OCC)c(CCC)c3C(=O)OCC)s2)c1C(=O)OCC | > 100 | > 100 | > 100 | > 100 | > 100 |
| CCOC(=O)C(C)Sc1nnc(COc2ccccc2OC)n1-c1ccccc1 (configuration not stated) | > 100 | > 100 | > 100 | > 100 | 28.1 |
| CCOC(=O)c1cc2c(OCc3ccccc3)c(OC)cc3c2c(n1)N(c1ccc(OC)cc1)C(C)C3 (configuration not stated) | > 50 | > 50 | > 50 | > 50 | > 50 |
| Cc1c2c(cc3c1C(=O)C(=O)C1=C3OC[C@@H]1C)C(C)(C)CCC2 | 44.5 | 6.68 | 59.5 | 28.5 | 31.9 |
| O=C(C#Cc1ccccc1)N1c2ccccc2CC1c1c[nH]c2ccccc12 (configuration not stated) | 67.5 | 43.1 | 76.7 | 30 | 28.8 |
| COc1ccc2nc3c(c(NCCCN(C)C)c2c1)CCCC3 | 22.4 | 31 | 28.4 | 24.8 | 28.5 |
| O=C1Nc2cc([N+](=O)[O-])c(Br)cc2C1=O | 31.7 | 31.6 | 46.5 | 37.3 | 33.5 |
| CC1(C)C2CCC3(OCCO3)C1C(O)C2 (configuration not stated) | > 100 | > 100 | > 100 | > 100 |  |
| Cc1cn(C2CC(CCCO)C(CO)O2)c(=O)[nH]c1=O (configuration not stated) | > 100 | > 100 | > 100 | > 100 | > 100 |
| N#C/C(=C\c1cccc(O)c1O)C(N)=O | > 100 | > 100 | > 100 | > 100 | > 100 |
| N/C(=N\NS(=O)(=O)c1ccccc1)Oc1ccc(Br)cc1Br | > 100 | > 100 | > 100 | > 100 | > 100 |
| Cc1cccc2c1c1ccc3c(c1n2C)C(=O)C=CC3=O | 36.9 | 14.9 | 5.21 | 8.3 | 21.1 |
| O=c1c2ccccc2nc(-c2ccccc2)n1NC(=S)Nc1ccc(Cl)cc1 |  | > 100 | > 100 | > 100 | > 100 |
| C#CCNC(=O)ON1C(=O)CCC1=O | > 100 | > 100 | > 100 | > 100 |  |
| Cc1cc(NC(=O)C2C3C=CC(O3)C2C(=O)O)no1 (configuration not stated) | 26.6 | 77.7 | 49.2 | 34.2 | 29.9 |
| CNc1ccc2ncccc2c1[N+](=O)[O-] | > 100 | > 100 | > 100 | > 100 | > 100 |
| CCSCN(C)c1nc(N(C)C)nc(N(C)C)n1 | > 100 | > 100 | > 100 | > 100 | 89.7 |
| COc1cccc(/C(Cl)=C(\C=O)c2cccc(OC)c2)c1 | 47.8 | 29 | 29.1 | 28.5 | 16.4 |
| CN(C)/C=N\c1ccnc(=O)[nH]1 | > 100 | > 100 | > 100 | > 100 | > 100 |
| O=C1C[C@@H]2[C@@H](CCC23CC3)N1 | > 100 | > 100 | > 100 | > 100 | > 100 |
